Assay results as given in patent US7932384B2, “Reverse-turn mimetics and method relating thereto” (Choongwae Pharma Corporation, priority 2001, dated 2011).
In brackets after ≈: the same amount, converted by molar mass. Read-outs that look alike come from different tables or passages of the source.

How the values were obtained:
TCF4 = experiment: Effects of compounds on TCF4 expression (Table 9); type: cell-based
Excerpt: (§1) The effects of various compounds having general formula (I) on surviving and TCF4 expression were characterized.

survivin = experiment: Effects of compounds on survivin expression (Table 9); type: cell-based; conditions: for inhibition at 25 µM: Table 9, 25 uM; for inhibition at 5 µM: read-out: Survivin % inhibition 5 uM, Table 9, 5 uM
Excerpt: A plasmid containing luciferase under the control of surviving promoter was constructed and transfected into wild type, CBP+/−, or p300+/−3T3 cells.
as §1

SW480 cells = experiment: Growth inhibition assay (MTS or sulforhodamine B), SW480; type: cell-based; conditions: Homo sapiens
HCT116 cells = experiment: Growth inhibition assay (MTS or sulforhodamine B), HCT116; type: cell-based; conditions: Homo sapiens, HCT-116, 48 h, Table 5, MTS or sulforhodamine B assay, HCT116, 48 hours
[1] = test system: TCF4/β-catenin transcriptional pathway; experiment: Reporter gene assay (TOPFlash luciferase) in SW480 cells; type: cell-based; conditions: Homo sapiens
Procedure: SW480 cells were transfected with the usage of Superfect™ transfect reagent (Qiagen, 301307). Cells were trypsinized briefly 1 day before transfection and plated on 6 well plate (5×10^5 cells/well) so that they were 50-80% confluent on the day of transfection.
Four microgram (TOPFlash) and one microgram (pRL-null) of DNAs were diluted in 150 μl of serum-free medium, and 30 μl of Superfect™ transfect reagent was added. The DNA-Superfect mixture was incubated at room temperature for 15 min, and then, 1 ml of 10% FBS DMEM was added to this complex for an additional 3 hours of incubation. While complexes were forming, cells were washed with PBS twice without antibiotics.
The DNA-Superfect™ transfect reagent complexes were applied to the cells before incubating at 37° C. at 5% CO2 for 3 hours. After incubation, recovery medium with 10% FBS was added to bring the final volume to 1.18 ml. After 3 hours incubation, the cells were harvested and reseeded to 96 well plate (3×10^4 cells/well). After overnight incubation at 37° C. at 5% CO2, the cells were treated with Compound A for 24 hours. Finally, the activity was checked by means of luciferase assay (Promega, E1960).

survivin promoter = experiment: Survivin luciferase reporter in SW480 cells; type: cell-based; conditions: Homo sapiens, SW480, read-out: RGA, Survivin IC50, uM, Table 10, prodrug compounds, reporter gene assay survivin
physchem = conditions: 37 °C, thermodynamic from solid
surviving protein = experiment: Western blot analysis of survivin protein; type: cell-based; conditions: 5 μM
293 = experiment: Sulforhodamine B (SRB) assay, 293; type: cell-based; conditions: Homo sapiens, HEK293; Renal, 293, 48 hours
Procedure: Growth inhibitory effect of Compound A on the cells listed below was measured by the sulforhodamine B assay. SW480 cells in 100 μl media were plated in each well of 96-well plate and allowed to attach for 24 hours. Compound A was added to the wells to produce the desired final concentrations, and the plates were incubated at 37° C. for 48 hours. The cells were then fixed by gentle addition of 100 μl of cold (4° C.) 10% trichloroacetic acid to each well, followed by incubation at 4° C. for 1 hour. Plates were washed with deionized water five times and allowed to air dry. The cells were then stained by addition of 100 μl SRB solution (0.4% SRB(w/v) in 1% acetic acid (v/v)) to wells for 15 min. After staining, the plates were quickly washed five times with 1% acetic acid to remove any unbound dye, and allowed to air dry. Bound dye was solubilized with 10 mmol/L Tris base (pH 10.5) prior to reading the plates. The optical density (OD) was read on a plate reader at a wavelength of 515 nm with Molecular Device. Inhibition of growth was expressed as relative viability (% of control) and GI50 was calculated from concentration-response curves after log/probit transformation.
The values in Table 6 are in μg/ml.

min mouse = experiment: Min mouse model (polyp number); type: in vivo; conditions: for % Inhibition vs. VH: total polyp number
Procedure: Selected compounds of the present invention (Compound B and Compound C) were evaluated in the min mouse model to evaluate their efficacy as anti-cancer agents.
The min mouse model is a widely used model to test for this type of efficacy. The numbers of polyp formed in small intestine and colon of these mice after various treatments were measured (Table 7).

[2] = SW480, 48 h, Table 5, MTS or sulforhodamine B assay, SW480, 48 hours, read-out: Growth Inhibition (GI50, uM) SW480
[3] = SW480, Table 4, selected library compounds, Reporter gene assay as described in Example 6, read-out: IC50
[4] = pH 1.2, simulated gastric fluid, Solubility JP1 (pH 1.2), 0 hr
[5] = pH 1.2, simulated gastric fluid, Solubility JP1 (pH 1.2), 2 hr
[6] = pH 1.2, simulated gastric fluid, Solubility JP1 (pH 1.2), 20 hr
[7] = pH 6.8, fassgf or other biorelevant, Solubility JP2 (pH 6.8), 0 hr
[8] = pH 6.8, fassgf or other biorelevant, Solubility JP2 (pH 6.8), 2 hr
[9] = pH 6.8, fassgf or other biorelevant, Solubility JP2 (pH 6.8), 20 hr

SMILES	solubility (physchem; [4]) [µg/mL]	solubility (physchem; [5]) [µg/mL]	solubility (physchem; [6]) [µg/mL]	solubility (physchem; [7]) [µg/mL]	solubility (physchem; [8]) [µg/mL]	solubility (physchem; [9]) [µg/mL]	further results
CN1CC(=O)N2[C@@H](CN(Cc3cccc4ccccc34)C(=O)[C@@H]2Cc2ccc(O)cc2)N1C(=O)NCc1ccccc1	–	–	–	–	–	–	IC50 (TCF4): ~2 µM; inhibition at 25 µM (survivin): 99%; inhibition at 5 µM (survivin): 100%
CN1CC(=O)N2[C@@H](CN(Cc3c(Cl)cc(Cl)c4cccnc34)C(=O)[C@@H]2Cc2ccc(O)cc2)N1C(=O)NCc1ccccc1	–	–	–	–	–	–	IC50 (TCF4): 11.2 ± 1.5 µM; inhibition at 25 µM (survivin): 58%; inhibition at 5 µM (survivin): 6%
CN1CC(=O)N2[C@@H](Cc3ccc(O)cc3)C(=O)N(Cc3cccc4ccccc34)C[C@@H]2N1C(=O)NCc1ccccc1 [Compound 1]	–	–	–	–	–	–	GI50 (SW480 cells; [2]): 2.28 µM; GI50 (HCT116 cells): 1.78 µM
CN1CC(=O)N2[C@@H](Cc3ccc(OP(=O)(O)O)cc3)C(=O)N(Cc3cccc4ccccc34)C[C@@H]2N1C(=O)NCc1ccccc1 [Compound 1]	–	–	–	–	–	–	GI50 (SW480 cells; SW480, Table 10, prodrug compounds, SW480, read-out: MTS, SW480 (uM) GI50): 2 µM; IC50 ([1]; SW480, Table 10, prodrug compounds, reporter gene assay TopFlash, read-out: RGA, TopF IC50): 4.2 µM; IC50 (survivin promoter): 6.4 µM; solubility (physchem; pH 1.2, simulated gastric fluid, Solubility JP1 (pH 1.2)): 60.1 µg/mL (≈ 93.4 µM); solubility (physchem; pH 6.8, fassgf or other biorelevant, Solubility JP2 (pH 6.8)): 1800 µg/mL (≈ 2790 µM)
COC(=O)N1C2CN(CCc3ccc(F)cc3)C(=O)C(Cc3cccc4ccccc34)N2C(=O)CN1Cc1ccccc1 (stereo not drawn) [Compound 1]	–	–	–	–	–	–	IC50 [1, 3]: 12.8 µM
CN(C)c1cc(F)ccc1CN1C[C@H]2N(C(=O)CN(C)N2C(=O)NCc2ccccc2)[C@@H](Cc2ccc(OP(=O)(O)O)cc2)C1=O [Compound 3]	1880 (≈ 2870 µM)	1970 (≈ 3010 µM)	2040 (≈ 3110 µM)	1320 (≈ 2020 µM)	1900 (≈ 2910 µM)	2000 (≈ 3060 µM)	–
CN1CC(=O)N2[C@@H](Cc3ccc(OP(=O)([O-])[O-])cc3)C(=O)N(Cc3ccc(F)cc3F)C[C@@H]2N1C(=O)NCc1ccccc1.[Na+].[Na+] [Compound 4]	554	646	756	1980	2010	2030	–
O=c1[nH]cc(F)c(=O)[nH]1 [Compound 5-FU, 5-fluorouracil, reference compound]	–	–	–	–	–	–	amount of survivin protein (Western blot) (surviving protein): reduced the amount of the surviving protein; GI50 293: 2.02 µg/mL (≈ 15.5 µM)
CN1CC(=O)N2[C@@H](Cc3ccc(OP(=O)(O)O)cc3)C(=O)N(Cc3cccc4cnn(C)c34)C[C@@H]2N1C(=O)NCc1ccccc1 [Compound 5]	406 (≈ 627 µM)	532 (≈ 821 µM)	684 (≈ 1060 µM)	1760 (≈ 2720 µM)	1780 (≈ 2750 µM)	1760 (≈ 2710 µM)	–
C=CCN1CC(=O)N2[C@@H](Cc3ccc(OP(=O)([O-])[O-])cc3)C(=O)N(Cc3cccc4cccnc34)C[C@@H]2N1C(=O)NCc1ccccc1.[Na+].[Na+] [Compound 6]	1450	1720	1790	1830	1860	1870	–
C=CCN1CC(=O)N2[C@@H](Cc3ccc(OP(=O)([O-])[O-])cc3)C(=O)N(Cc3ccc(Cl)c4cccnc34)C[C@@H]2N1C(=O)NCc1ccccc1.[Na+].[Na+] [Compound 7]	309	446	521	2140	2220	2240	–
C=CCN1CC(=O)N2[C@@H](Cc3ccc(OP(=O)([O-])[O-])cc3)C(=O)N(Cc3ccc(F)cc3F)C[C@@H]2N1C(=O)NCc1ccccc1.[Na+].[Na+] [Compound 8]	671	775	921	2300	2320	2270	–
CN1CC(=O)N2[C@@H](Cc3ccc(OP(=O)([O-])[O-])cc3)C(=O)N(Cc3cccc4cccnc34)C[C@@H]2N1C(=O)NCc1ccccc1.[Na+].[Na+] [Compound 9]	2250	2280	2400	2320	2350	2420	–
CN(C)c1cc(F)c(F)cc1CN1C[C@H]2N(C(=O)CN(C)N2C(=O)NCc2ccccc2)[C@@H](Cc2ccc(OP(=O)([O-])[O-])cc2)C1=O.[Na+].[Na+] [Compound 10]	2290	2270	2330	2030	2060	2030	–
CN(C)c1cc(CN2C[C@H]3N(C(=O)CN(C)N3C(=O)NCc3ccccc3)[C@@H](Cc3ccc(OP(=O)([O-])[O-])cc3)C2=O)ccc1Cl.[Na+].[Na+] [Compound 11]	2010	2000	2000	1640	1650	1650	–
CN1CC(=O)N2[C@@H](Cc3ccc(O)cc3)C(=O)N(Cc3ccc(F)cc3F)C[C@@H]2N1C(=O)NCc1ccccc1 [Compound 13]	–	–	–	–	–	–	GI50 (SW480 cells; [2]): 1.65 µM; GI50 (HCT116 cells): 1.59 µM
CCOP(=O)(CC(=O)Nc1ccc(C[C@H]2C(=O)N(Cc3cccc4ccccc34)C[C@H]3N2C(=O)CN(C)N3C(=O)NCc2ccccc2)cc1)OCC [Compound 59]	–	–	–	–	–	–	GI50 (SW480 cells; [2]): > 50 µM
CN1CC(=O)N2[C@@H](Cc3ccc(O)cc3)C(=O)N(Cc3cccc4c3cnn4CCN3CCOCC3)C[C@@H]2N1C(=O)NCc1ccccc1 [Compound 73]	–	–	–	–	–	–	GI50 (SW480 cells; [2]): 9.2 ± 0.8 µM; GI50 (HCT116 cells): 15.8 ± 2.6 µM
CN1CC(=O)N2[C@@H](Cc3ccc(O)cc3)CN(Cc3ccc(F)cc3F)C[C@@H]2N1C(=O)NCc1ccccc1 [Compound 77]	–	–	–	–	–	–	GI50 (SW480 cells; [2]): 26.5 ± 6.5 µM; GI50 (HCT116 cells): 10.7 ± 0.8 µM
C=CCN1CC(=O)N2[C@@H](Cc3ccc(O)cc3)C(=O)N(Cc3ccc(F)cc3F)C[C@@H]2N1C(=O)NCc1ccccc1 [Compound 115]	–	–	–	–	–	–	GI50 (SW480 cells; [2]): 2 ± 0.7 µM; GI50 (HCT116 cells): 1.1 ± 0.04 µM
C=CCN1CC(=O)N2[C@@H](Cc3ccc(O)cc3)C(=O)N(Cc3ccc(F)cc3F)[C@@H](C)[C@@H]2N1C(=O)NCc1ccccc1 [Compound 147]	–	–	–	–	–	–	GI50 (SW480 cells; [2]): 6.1 ± 0.4 µM; GI50 (HCT116 cells): 5.5 ± 0.4 µM
C=CCN1CC(=O)N2[C@@H](Cc3ccc(OP(=O)(O)O)cc3)C(=O)N(Cc3cccc4c3OCCN4C)C[C@@H]2N1C(=O)NCc1ccccc1 [Compound 169]	–	–	–	–	–	–	IC50 [1, 3]: 1 ± 0.1 µM
CN1CC(=O)N2[C@@H](Cc3ccc(O)cc3)C(=O)N(Cc3cccc4cccnc34)C[C@@H]2N1C(=O)NCc1ccccc1 [Compound B]	–	–	–	–	–	–	Polyp Number (Mean ± S.D.) Colon (min mouse; 300 mpk): 1.4 ± 0.9; Polyp Number (Mean ± S.D.) Small Intestine (min mouse; 300 mpk): 45.2 ± 22.1; Polyp Number (Mean ± S.D.) Total (min mouse; 300 mpk): 46.8 ± 17.0; % Inhibition vs. VH (min mouse; 300 mpk): 31%
CC1=C(CC(=O)O)c2cc(F)ccc2/C1=C\c1ccc([S+](C)[O-])cc1 (stereo not drawn) [Sulindac]	–	–	–	–	–	–	Polyp Number (Mean ± S.D.) Colon (min mouse; 160 ppm): 0.5 ± 0.5; Polyp Number (Mean ± S.D.) Small Intestine (min mouse; 160 ppm): 48.0 ± 20.7; Polyp Number (Mean ± S.D.) Total (min mouse; 160 ppm): 48.5 ± 20.9; % Inhibition vs. VH (min mouse; 160 ppm): 28%
